Tests used:
histamine = conditions: cited from earlier work
human volunteers = assay: Phase I clinical studies, peroral administration; format: in vivo
[1] = Cardiovascular side effects on sublingual or buccal administration; format: in vivo
serotonin = conditions: cited from earlier work
[2] = Absorption from aqueous compositions kept under the tongue or in the mouth; format: in vivo; conditions: aqueous compositions kept under the tongue or in the mouth of a patient

Compound: CN1C[C@@H]2c3ccccc3Oc3ccc(Cl)cc3[C@H]2C1 (relative stereo) [trans-5-chloro-2-methyl-2,3,3a,12b-tetrahydro-1H-dibenz[2,3:6,7]oxepino[4,5-c]pyrrole]
- Antihistamine activity (histamine): antihistamine and antiserotonin activities
- Cardiotoxic effects (human volunteers): serious cardiotoxic effects, e.g. postural hypotension and/or impairment of baroreceptor functioning, occurred
- Cardiovascular side effects [1]: substantially less cardiovascular side effects
- Antiserotonin activity (serotonin): antihistamine and antiserotonin activities
- Absorption [2]: rapidly absorbed
